Data as given in US9200046B2, “Reporter system for high throughput screening of compounds and uses thereof” (priority 2011, dated 2015).
Structures can show the parent of a compound that is named as a salt. Where two headings read alike, the source gives them in different places.

Target: Nrf2-Keap1 complex (Homo sapiens, UniProt Q14145)
Assay: cell-based
Format: cell-based
Settings: for activation at 16 µM / activation at 32 µM: 3 h; for activation at 16 µM: read-out: Activation 100 nL; for activation at 32 µM: read-out: Activation 200 nL
[1] = Table 2, 100 nL compound, screen run at 16 and 32 μM, 3 hr
[2] = Table 2, 200 nL compound, screen run at 16 and 32 μM, 3 hr
[3] = Table 1A, 100 nL compound, screen run at 16 and 32 μM, 3 hr
[4] = Table 1A, 200 nL compound, screen run at 16 and 32 μM, 3 hr

Chain of Nrf2-Keap1 complex (Q14145 whole entry, one chain of several): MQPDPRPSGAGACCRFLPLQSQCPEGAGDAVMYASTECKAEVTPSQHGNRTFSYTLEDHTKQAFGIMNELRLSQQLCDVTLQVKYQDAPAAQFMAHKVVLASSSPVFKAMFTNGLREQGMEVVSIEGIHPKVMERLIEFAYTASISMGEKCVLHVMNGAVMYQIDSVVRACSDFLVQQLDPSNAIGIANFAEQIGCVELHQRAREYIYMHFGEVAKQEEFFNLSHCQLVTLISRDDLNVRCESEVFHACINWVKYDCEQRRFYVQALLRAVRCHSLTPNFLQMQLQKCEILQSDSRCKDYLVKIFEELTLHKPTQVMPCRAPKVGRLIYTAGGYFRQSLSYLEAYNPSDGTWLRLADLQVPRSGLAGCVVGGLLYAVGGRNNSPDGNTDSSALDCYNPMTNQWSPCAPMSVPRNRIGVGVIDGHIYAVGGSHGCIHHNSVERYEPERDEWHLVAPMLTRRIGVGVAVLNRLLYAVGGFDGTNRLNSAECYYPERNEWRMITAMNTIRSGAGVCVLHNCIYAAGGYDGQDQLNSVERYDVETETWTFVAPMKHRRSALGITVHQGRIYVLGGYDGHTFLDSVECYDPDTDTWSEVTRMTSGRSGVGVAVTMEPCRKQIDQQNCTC

Row | Compound | activation at 16 µM [%] | activation at 32 µM [%] | 100 nL (luminescence) [1] | 200 nL (luminescence) [2] | other results
1 | CC1(C)C(C(Cl)Cl)C2(Cl)C(Cl)C(Cl)C1(Cl)C2(Cl)Cl (centres unmarked) [TOXAPHENE] | 395 | 226 | 5648 | 5632 | 
2 | [H]/N=C(\N/C(=N/[H])NCCCCCCNC(=N)NC(=N)Nc1ccc(Cl)cc1)Nc1ccc(Cl)cc1 [CHLORHEXIDINE, reference compound] |  |  | 2188 | 1750 | Activation 100 nL: 147%; Activation 200 nL: 67%
3 | COc1cc(O)c(C(=O)c2ccccc2)cc1O [CEAROIN] | 53 | 111 | 1076 | 2988 | 
4 | CSc1nc(NC(C)C)nc(NC(C)C)n1 [PROMETRYN] | 67 | 4 | 1264 | 542 | 
5 | CC1(C)C=CC(=O)[C@@]2(C)C1CC(=O)[C@]1(C)C2CC[C@@]2(C)[C@H](c3ccoc3)OC(=O)C3OC321 (some centres unmarked) [DEACETOXY-7-OXISOGEDUNIN] |  |  | 2960 | 3040 | Activation 100 nL: 170%; Activation 200 nL: 178%
6 | O=C(CC[N+](=O)[O-])OC[C@H]1O[C@@H](O)[C@H](OC(=O)CC[N+](=O)[O-])[C@@H](OC(=O)CC[N+](=O)[O-])[C@@H]1OC(=O)CC[N+](=O)[O-] [[…]] |  |  | 1020 | 1268 | Activation 100 nL: 75%; Activation 200 nL: 40%
7 | COc1cc([C@@H]2c3cc4c(cc3[C@@H](O[C@@H]3O[C@@H]5CO[C@@H](C)O[C@H]5[C@H](O)[C@H]3O)[C@H]3COC(=O)[C@H]23)OCO4)cc(OC)c1O [ETOPOSIDE, reference compound] | 40 | 89 | 1180 | 1484 | 
8 | 1(2)alpha-EPDXYDEOXYDIHYDROGEDUNIN |  |  | 752 | 1028 | Activation 100 nL: 29%; Activation 200 nL: 25%
9 | COc1cc(O)c2c(=O)c(O)c(-c3ccc(O)c(O)c3)oc2c1 [RHAMNETIN] | 138 | 47 | 2216 | 1536 | 
10 | CC(=O)O[C@@H]1C[C@H]2C(C)(C)[C@@H](O)CC[C@]2(C)[C@H]2CC[C@@]3(C)[C@H](c4ccoc4)OC(=O)[C@H]4O[C@]43[C@@]21C [beta-DIHYDROGEDUNOL] |  |  | 2270 | 3252 | Activation 100 nL: 217%; Activation 200 nL: 124%; Neh2-luc reporter activation: 220%
11 | O=C(/C=C/c1ccccc1)c1ccc(O[C@@H]2O[C@H](CO)[C@@H](O)[C@H](O)[C@H]2O)cc1O [2′,4′-DIHYDROXYCHALCONE4′-GLUCOSIDE] |  |  | 1056 | 2592 | Activation 100 nL: 33%; Activation 200 nL: 121%
12 | COc1ccc(-c2oc3cc(O[C@@H]4O[C@H](CO)[C@@H](O)[C@H](O)[C@H]4O)c(OC)c(O)c3c(=O)c2OC)cc1O [CENTAUREIN] | 41 | 19 | 916 | 876 | 
13 | Nc1nc(N)c2nc(-c3ccccc3)c(N)nc2n1 [reference compound] | 405 | 23 |  |  | 100 nL (luminescence) [3]: 3914; 200 nL (luminescence) [4]: 872
14 | NC(=O)c1ccc[n+]([C@@H]2O[C@H](COP(=O)([O-])OP(=O)(O)OC[C@H]3O[C@@H](n4cnc5c(N)ncnc54)[C@H](O)[C@@H]3O)[C@@H](O)[C@H]2O)c1 [NADIDE, reference compound] | 31 | 16 |  |  | 100 nL (luminescence) [3]: 640; 200 nL (luminescence) [4]: 712
15 | Oc1nc2cc(Cl)c(Cl)cc2nc1O [2,3-DIHYDROXY-6,7-DICHLOROQUINOXALINE] | 46 | 109 | 1056 | 1992 | 
16 | CC1(C)C(=O)C=C[C@]2(C)[C@H]3CC[C@@]4(C)[C@H](c5ccoc5)OC(=O)[C@H]5O[C@]54[C@]3(C)[C@H](O)C[C@@H]12 [DEACETYLGEDUNIN] | 69 | -7 | 1412 | 220 | 

Row | Compound | activation at 16 µM [%] | activation at 32 µM [%] | 100 nL (luminescence) [1] | 200 nL (luminescence) [2] | other results
17 | CN(C)c1ccc(O)c2c1C[C@H]1C[C@H]3[C@H](N(C)C)C(O)=C(C(N)=O)C(=O)[C@@]3(O)C(O)=C1C2=O [MINOCYCLINEHYDROCHLORIDE, reference compound] | 326 | 169 |  |  | Neh2-luc reporter activation: 200%
18 | CC(=O)OC[C@H]1O[C@@H]([S-])[C@H](OC(C)=O)[C@@H](OC(C)=O)[C@@H]1OC(C)=O.CCP(CC)CC.[Au+] [auranofin, reference compound] |  |  |  |  | Neh2-luc reporter activation: 200%
19 | C#C[C@]1(O)CC[C@H]2[C@@H]3CCC4=C(CCC(=O)C4)[C@H]3CC[C@@]21C [NORETHYNODREL, reference compound] | 128 | 171 |  |  | 100 nL (luminescence): 1948; 200 nL (luminescence): 3920
20 | O=C1C=C2C=C[C@@H]3C[C@@]2(O1)[C@H]1CCCCN31 [SECURININE] | 84 | -14 | 2068 | 176 | 
21 | CC(C)=CCCC1(C)C=Cc2c(O)c3c(c(CC=C(C)C)c2O1)OC12C(=CCCC1C(C)(C)O[C@@]2(C/C=C(\C)C(=O)O)C(=O)O)C3=O (some centres unmarked) [GARCINOLICACID] | 29 | 33 | 800 | 832 | 
22 | C=C1C[C@@H]2[C@H](CC[C@]3(C)C(=O)CC[C@@H]23)[C@@]2(C)C=CC(=O)C=C12 [EXEMESTANE, reference compound] | 261 | 220 | 4836 | 4668 | 
23 | CC(=O)[O-].CC(=O)[O-].[Cd+2] [CADMIUMACETATE] |  |  | 992 | 312 | Activation 100 nL: 47%; Activation 200 nL: −6%
24 | COc1ccc2c(c1)[C@@]1(C)CCC(=O)C[C@H]1CC2 [5beta-12-METHOXY-4,4-BISNOR-8,11,13-PODOCARPATRIEN-3-ONE] | 46 | 13 |  |  | 100 nL (luminescence) [3]: 768; 200 nL (luminescence) [4]: 636
25 | O=c1ccn([C@@H]2O[C@H](COP(=O)([O-])OP(=O)([O-])OP(=O)([O-])O)[C@@H](O)[C@H]2O)c(=O)[nH]1.[Na+].[Na+].[Na+] [URIDINETRIPHOSPHATETRISODIUM] |  |  | 612 | 708 | Activation 100 nL: 28%; Activation 200 nL: 16%
26 | CCCCCCCCCCCCCCCc1ccco1 [AVOCADANOFURAN] |  |  | 880 | 1088 | Activation 100 nL: 59%; Activation 200 nL: 32%
27 | COc1cc2c(c(OC)c1OC)-c1ccc(=O)c(O)cc1[C@@H](NC(C)=O)CC2 [COLCHICEINE] | 35 | 11 | 672 | 584 | 
28 | CCC(C)C(=O)c1c(O)c(C)c2oc3c(C)c(O)c(C(=O)C(C)CC)c(O)c3c2c1O (centres unmarked) [RHODOMYRTOXINB] | 56 | 36 |  |  | 100 nL (luminescence) [3]: 1120; 200 nL (luminescence) [4]: 1276
29 | O=CC=Cc1ccc(O)cc1 [p-HYDROXYCINNAMALDEHYDE] | 63 | 122 | 1208 | 3256 | 
30 | O=c1c(O)c(-c2ccc(O)cc2)oc2cc(O)cc(O)c12 [kaempferol, 3,5,7,4′-tetrahydroxyflavone] |  |  |  |  | fold less effective than quercetin and fisetin (flavone SAR): 2.5 fold
31 | O=C1C(O)=C(O)C(=O)C(O)=C1O [TETROQUINONE] | 26 | 27 | 908 | 720 | 
32 | COc1ccc2c(c1)OCc1c-2oc2cc(OC)ccc12 [DEHYDROVARIABILIN] | 86 | 39 | 1672 | 916 | 
